“Also recorded” adds a separate entry of the source. Where two headings read alike, the source gives them in different places.
How the values were obtained:
CKIα = target: T1, CKIα (Homo sapiens, UniProt P48729); assay: In vitro kinase assay (Kinase Glo), CKIα; type: biochemical
T1 construct: purchased Invitrogen PV3850
Method: A stock solution of 7.4 mM in DMSO was prepared and thermally adapted by heating to c.a. 100 °C for 1 min. Two series of eight samples were prepared with consecutive three-time dilutions from the stock solution. One of the series (‘dark’ samples) was prepared in dark Eppendorf tube, the other series (‘light’ samples) was pre-irradiated with UV light (365 nm, UV lamp Spectroline, ENB-280/FE, 1 × 8 Watt) for 45 min. For compound 9, 1 mM solution in DMSO was thermally adapted by heating to 80 °C for 2 min and split into two vials. One vial was kept in the dark and the other was irradiated with green light (530 nm, 3x Nichia NCSG219B-V1, 3 × 550 mW, Sahlmann Photochemical Solutions) for 60 min. Both dark-kept and irradiated samples were subjected to 8-point 3-fold dilutions. All the solutions were applied to the well plate under a red lamp in the dark room in order to prevent ambient-light-induced photo-isomerization.
The assays were performed on a white, solid-bottom 384-well plates. The total volume for the reaction is 10.5 µl. Firstly, a solution of CKI and peptide was added to the bottom of the well (9 µL). Next, a corresponding solution of the compound (0.5 μL, final 5% DMSO) followed by 50 μM ATP solution (1 μL) were pipetted into the upper corners of each well. The enzymatic reaction was started by spinning down the plate (1800 x g, 2 min).
By employing this method, all reactions were started at the same time, minimizing variance between different samples. Incubation for 3 h at 30 °C or 2 h at 37 °C allowed for the enzymatic phosphorylation of the substrate peptide. As the reaction started, the wells with ‘light’ samples were irradiated with UV light or kept in dark in case of experiment with compound 9. ‘Dark’ (0 min pre-irradiation) wells were covered with an aluminum sticker from the beginning. After the incubation, 10 μL Kinase Glo® (Promega) was applied into the wells and the luminescent signal was recorded by a plate reader (BioTek Synergy H1 or Cytation).
The total volume for the reaction was 10.5 µl. The reaction mixture contained the following: for CKIδ, 4 ng/µl CKIδ (14-520, Eurofins), 50 µM peptide substrate RKKKAEpSVASLTSQCSYSS corresponding to human PER2 Lys659-Ser674, and CKI buffer (40 mM Tris, 10 mM MgCl2, 0.5 mM DTT, 0.1 mg/ml BSA, pH7.4); for CKIα, 1 ng/µl CKIα (PV3850, Invitrogen), 50 µM CKI peptide substrate (60547-1, Anaspec), and CKI buffer.
The data obtained from the in vitro kinase assay was analyzed using GraphPad software, in which the luminescence outcome is normalized. Normalization is done using a luminescent output of the control that contained high concentration of longdaysin (370 µM) as 100% inhibition and DMSO for 0% inhibition. In all graphs, a dose-response fit was used to obtain

[1] = Chemical stability under dark and irradiation conditions followed by LCMS; type: physicochemical; details: 40 µM in kinase assay buffer or cell culture medium, dark, 365 nm 3 h, 400 nm 30 min
Method: LCMS traces of stability studies
Supplementary Figure 8. Chemical stability of compound 3 under dark and irradiation conditions followed by LCMS. All the samples were prepared as 40 µM solution in buffer or cell culture medium. ‘Buffer’ and ‘medium’ samples were injected immediately upon dissolving compound 3, ‘buffer_3h_dark’ was injected after 3 h of keeping the solution in dark, ‘buffer_3h_365nm’ after irradiation of the sample for 3 h with UV light in kinase assay buffer, and ‘medium_30min_400nm’ after 30 min of irradiation with 400 nm in cell culture medium. The trans-isomer was followed at the retention time of 10.41-10.47 min and the cis-isomer at the retention time of 8.84-8.90 min. Mass spectra of both isomers in different […]
(1 picture or pasted object on this page, not shown here)

[2] = Fatigue on repeated photoisomerization cycles; type: physicochemical
Method: Upon reaching PSS distribution with green light, thermal back-isomerization was followed in the dark for 14 h (gray background). After this period, violet light was applied (violet rectangle) for 8 min to confirm the presence of the remaining cis-isomer and estimate cis-to-trans ratio. Green light allowed for switching to the cis-isomer once again (green rectangle), showing that in situ isomerization is possible. c Reversible photochromism in cell culture medium followed at 312 nm absorbance. […] The thermally adapted sample is shown in black (dark), irradiated with green light in vitro (pre-incubation, shown in green), with violet light in cellulo (post-incubation, shown in gray), and with green light in vitro followed by violet light in cellulo in purple. The control experiment with longdaysin is also shown. Luminescence rhythm profiles and data for DMSO-treated cells are shown in Supplementary Figs. 25 and 26, respectively. Luminescence is given in arbitrary units. n = 3 biologically independent samples for the CKIα enzymatic assay (d), n = 2 biologically independent samples for the CKIδ enzymatic assay (d), and n = 3 biologically independent samples for the cellular assay (e). […]
Supplementary Figure 30. […] The spectrum is measured at pH 7.4 (0.1 mM in water) and in presence of 0.1 mM concertation of luciferin. […]

[3] = thermally adapted trans-isomer kept in the dark, read-out: CKIα IC50, dark

T1 sequence (P48729 whole entry): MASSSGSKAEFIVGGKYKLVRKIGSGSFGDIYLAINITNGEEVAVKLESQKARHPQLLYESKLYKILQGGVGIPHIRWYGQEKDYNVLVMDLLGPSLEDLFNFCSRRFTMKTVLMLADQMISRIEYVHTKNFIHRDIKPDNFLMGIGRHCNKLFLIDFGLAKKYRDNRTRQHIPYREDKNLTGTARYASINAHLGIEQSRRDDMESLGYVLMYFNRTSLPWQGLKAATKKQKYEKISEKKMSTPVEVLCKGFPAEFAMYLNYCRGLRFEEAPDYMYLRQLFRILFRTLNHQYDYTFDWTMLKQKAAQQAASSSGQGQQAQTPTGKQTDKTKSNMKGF

| IC50 (CKIα; irradiated with UV light (365 nm) before and during the assay, cis-enriched, read-out: CKIα IC50, light) [µM] | fold difference in CKIα inhibition between dark and UV-irradiated sample (CKIα; trans vs cis-enriched (365 nm), 5 is stronger under light, the others weaker) [fold] | SMILES | potency relative to longdaysin (CKIα; CKI activity) | fold difference in CKIα IC50 between trans-form and cis-isomer (CKIα; green light 530 nm vs dark) [fold] | IC50 (CKIα; pre-irradiated with green light (530 nm), 86% cis, read-out: CKIα IC50, 530 nm) [µM] | IC50 (CKIα; [3]) [µM] | chemical stability (reduction or oxidation of the azo group) [1] | fatigue upon repeated illumination cycles [2] |
| --- | --- | --- | --- | --- | --- | --- | --- | --- |
| – | – | CC(C)n1cnc2c(NCc3ccc(F)c(/N=N/c4c(F)cccc4F)c3F)ncnc21 [Compound 9] | comparable to that of longdaysin | 1.5 | 8.2 | 5.3 | Products of reduction or oxidation were not | very low fatigue; also recorded: Almost no fatigue |
| 24 | 8 | Cc1nn(C)c(C)c1/N=N/c1cccc(CNc2ncnc3c2ncn3C(C)C)c1 [Compound 8] | – | – | – | 3 | Products of reduction or oxidation were not observed; also recorded: no observable reduction or oxidation | low fatigue |

Reference: article PMC8155176, “Reversible modulation of circadian time with chronophotopharmacology” (Nature Communications, 2021)
